Test results taken from publication PMC3478670 (Journal of medicinal chemistry, 2012).

System: not listed separately
Assay: in vitro
Settings: human, pooled human liver microsomes, pH 7.4

| Compound | microsomal CLint at 1 μM |
| --- | --- |
| C=C(C)[C@@H]1CC[C@]2(C(=O)N3CCN(CCCCC(=O)O)CC3)CC[C@]3(C)[C@H](CC[C@@H]4[C@@]5(C)CC[C@H](OC(=O)CC(C)(C)C(=O)O)C(C)(C)[C@@H]5CC[C@]43C)[C@@H]12 [Compound 41, N-[3β-O-(3′,3′-Dimethylsuccinyl)-lup-20(29)-en-28-oyl]-5-piperazinepentanoic acid] | 2.1 µL/min/mg |

System: HIV-1NL4-3
Assay: HIV-1NL4-3 replication inhibition assay in MT-4 lymphocytes
Type: cell-based
Settings: HIV-1NL4-3 infected MT-4 cells

| Compound | anti-HIV replication activity (in words) |
| --- | --- |
| C=C(C)[C@@H]1CC[C@]2(C(=O)OCOC)CC[C@]3(C)[C@H](CC[C@@H]4[C@@]5(C)CC[C@H](OCOC)C(C)(C)[C@@H]5CC[C@]43C)[C@@H]12 [Compound 3, Methoxymethyl 3β-methoxymethoxy-lup-20(29)-en-28-oate] | did not show anti-HIV activity |
| C=C(C)[C@@H]1CC[C@]2(C(=O)OCCCCCCCC)CC[C@]3(C)[C@H](CC[C@@H]4[C@@]5(C)CC[C@H](OC(=O)CC(C)(C)C(=O)O)C(C)(C)[C@@H]5CC[C@]43C)[C@@H]12 [Compound 23, Octyl 3β-O-(3′,3′-dimethylsuccinyl)-lup-20(29)-en-28-oate] | no inhibition of HIV-1 replication |
| C=C(C)[C@@H]1CC[C@]2(C(=O)OCOCCOC)CC[C@]3(C)[C@H](CC[C@@H]4[C@@]5(C)CC[C@H](O)C(C)(C)[C@@H]5CC[C@]43C)[C@@H]12 [Compound 8, Methoxyethoxymethyl 3β-hydroxy-lup-20(29)-en-28-oate] | did not show anti-HIV activity |
| C=C(C)[C@@H]1CC[C@]2(C(=O)OCOC)CC[C@]3(C)[C@H](CC[C@@H]4[C@@]5(C)CC[C@H](O)C(C)(C)[C@@H]5CC[C@]43C)[C@@H]12 [Compound 7, Methoxymethyl 3β-hydroxy-lup-20(29)-en-28-oate] | did not show anti-HIV activity |
| C=C(C)[C@@H]1CC[C@]2(C(=O)O)CC[C@]3(C)[C@H](CC[C@@H]4[C@@]5(C)CC[C@H](OCOC)C(C)(C)[C@@H]5CC[C@]43C)[C@@H]12 [Compound 5, 3β-Methoxymethoxy-betulinic acid] | did not show anti-HIV activity |
| C=C(C)[C@@H]1CC[C@]2(C(=O)O)CC[C@]3(C)[C@H](CC[C@@H]4[C@@]5(C)CC[C@H](OCOCCOC)C(C)(C)[C@@H]5CC[C@]43C)[C@@H]12 [Compound 6, 3β-Methoxyethoxymethoxy-betulinic acid] | did not show anti-HIV activity |
| C=C(C)[C@@H]1CC[C@]2(C(=O)OCOCCOC)CC[C@]3(C)[C@H](CC[C@@H]4[C@@]5(C)CC[C@H](OCOCCOC)C(C)(C)[C@@H]5CC[C@]43C)[C@@H]12 [Compound 4, Methoxyethoxymethyl 3β-methoxyethoxymethoxy-lup-20(29)-en-28-oate] | did not show anti-HIV activity |
